Measurements published in patent US20040044304A1, “Local drug delivery using photosensitizer-mediated and electromagnetic radiation enhanced vascular permeability” (priority 2002, published 2004).

System: blood vessels within the dorsal window chamber
Format: in vivo, Syrian golden hamsters
Conditions: 150 kD FITC-Dextran conjugate; fluorescence microscopy
Source text: Syrian golden hamsters (Charles River Laboratories, Kingston, N.Y.) weighing between 60-70 gram were surgically implanted with titanium back-pack window chambers as described ([…] et al., 1980; Colantuoni et al., 1984; […] et al., 1994). Prior to the surgical procedure, the dorsal surface of the mouse was shaved with electric clippers (Sunbeam Oster 2-Speed, 150 Cadillac Lane, McMinnville, Tenn., 37110) and then the shaved skin covered in a depilatory cream (Nair, Carter Products, New York, N.Y., 10105) for 10 minutes to remove the remaining hair. A dorsal skin fold consisting of two layers of skin and muscle tissue was then sandwiched between two opposing titanium frames (Campus Research Machine Shop, University of California, San Diego 9500 Gilman Drive, La Jolla, Calif.) with a 15 mm circular opening in each. Layers of skin and muscle fascia were separated from the sub-cutaneous tissue, and removed until a thin monolayer of muscle and one layer of intact skin remained. A coverglass (Type Circle 1, Part #12-545-80 sourced from Fisher Scientific, 2761 Walnut Avenue, Tustin, Calif., 92780) held by an expansion ring in the circular window of one titanium frame was then placed on the exposed tissue to allow direct microscopic visualization of the vasculature. The window in the second opposing titanium frame was left open exposing the intact skin. Two days following the implantation of the titanium chamber, an in-dwelling PE10 catheter (VVR Scientific, Westchester, Pa.) was implanted in the carotid artery. The catheter tubing was passed sub-cutaneously from the ventral to the dorsal side of the neck, and exteriorized through the skin at the base of the chamber. The patency of the catheter was ensured by daily flushing of the in-dwelling implanted tip with 0.005-0.01 ml of heparinized saline (40 IU/ml). The heparin was sourced from Upjohn Co., 100 Route […], Prepack, N.J., 07977, and the saline from Abbott Laboratories, North Chicago, Ill., 60064. Microvascular observations using an intra-vital microscope were not undertaken until at least 4 days post-chamber implantation to mitigate against post-surgical trauma, and to confirm that blood vessels within the chamber were functioning and intact and patent. A chamber was considered suitable for subsequent studies if microscopic examination of the preparation met the following criteria (as applied in […] et al., 1994): The intra-vital microscopic studies were undertaken on un-sedated animals held in a Plexiglass tube (Campus Research Machine Shop, University of California, San Diego 9500 Gilman Drive, La Jolla, Calif.) from which the window chamber sandwich protruded horizontally, allowing visualization of the chamber on the microscope stage. The Plexiglass tube acted to restrain the animals without impeding respiration. The intra-vital microscopy was performed using a Leitz Ortholux II (McBain Instruments, Inc., 9601 […] Avenue, Chatsworth, Calif., 91311) fitted with a Leitz Wetzlar 25× saline immersion objective lens, 0.6 numerical aperture (McBain Instruments, Inc., 9601 […] Avenue, Chatsworth, Calif., 91311), a Leitz Wetzlar 10× dry Planfluotar lens, 0.3 numerical aperture (McBain Instruments, Inc., 9601 […] Avenue, Chatsworth, Calif., 91311) and a Leitz Wetzlar 4× EF dry lens, 0.12 numerical aperture (McBain Instruments, Inc., 9601 […] Avenue, Chatsworth, Calif., 91311). A 100 Watt Hg light source (Olympus Corporation, 2 Corporate Center Drive, Melville, N.Y., 11747-3157) was used for both trans- and epi-illumination. For the trans-illumination studies the light was filtered using a 420 nm blue filter which selectively passed light in the region of the maximum absorbance band of hemoglobin, causing the red blood cells to appear as dark objects against a gray background. In addition, a heat filter was placed in the light path prior to the condenser to prevent hyperthermic effects on the tissue being examined.

Substance: fluorescein diisothiocyanate dextran [FITC-Dextran, reference compound]
- Retention of the molecule in the treated tissue field following PhotoPoint-induced release from the vasculature: at least 48 hrs
